Measured values published in US9676715B2, “Bis-indolic derivatives, a process for preparing the same and their uses as a drug” (UNIVERSITE JOSEPH FOURIER, priority 2011, dated 2017).
Values after ≈ are worked out from the molar mass of the structure shown.

Key:
[1] = system: S. aureus ATCC 106414 (VISA); test: MIC, microdilution method (9.1); type: cell-based, Staphylococcus aureus; conditions: Staphylococcus aureus, read after 18 h, read-out: MIC
Procedure: (§1) The microdilution method recommended by the Clinical and Laboratory Standard Institute [M07-A8, Vol. 29, No. 2] was used. The activity of indolic compounds was tested against 29 bacterial strains belonging to 17 different species and 12 different genera (Staphylococcus, Streptococcus, Enterococcus, Listeria, Bacillus, Haemophilus, Escherichia, Klebsiella, Enterobacter, Serratia, Pseudomonas, and Acinetobacter). Bacterial inocula were prepared in Mueller Hinton broth (MH2, bioMérieux, Marcy L'Etoile, France), supplemented with 10% sheep blood for fastidious species (i.e., Streptococcus pneumoniae and Haemophilus influenzae). They were dispensed in 96 well microtiter plates (5×10^5 CFU/ml of final inoculum). Indolic compounds were added to the wells as to obtain two-fold serial concentrations (0.50-128 mg/L of final concentrations). Plates were incubated at 37° C. in ambient air, or at 37° C. in 5% CO2 enriched atmosphere for fastidious species. […] Drug-free cultures served as growth controls. Cultures receiving gentamicin, ciprofloxacin or cefotaxime served as positive controls.

S. aureus ATCC 25923 = test: MIC, microdilution method (9.1); type: cell-based, Staphylococcus aureus; conditions: Staphylococcus aureus, ATCC25923, read after 18 h, read-out: MIC
Procedure: as §1

S. aureus ATCC 29213 = test: MIC, microdilution method (9.1); type: cell-based, Staphylococcus aureus; conditions: Staphylococcus aureus, ATCC29213, read after 18 h, read-out: MIC
Procedure: as §1

[2] = system: S. aureus ATCC 33592 (MRSA); test: MIC, microdilution method (9.1); type: cell-based, Staphylococcus aureus; conditions: Staphylococcus aureus, read after 18 h, read-out: MIC
Procedure: as §1

S. aureus ATCC 6538 = test: MIC, microdilution method (9.1); type: cell-based, Staphylococcus aureus; conditions: Staphylococcus aureus, ATCC6538, read after 18 h, read-out: MIC
Procedure: as §1

S. aureus ATCC 9144 = test: MIC, microdilution method (9.1); type: cell-based, Staphylococcus aureus; conditions: Staphylococcus aureus, ATCC9144, read after 18 h, read-out: MIC
Procedure: as §1

S. aureus CIP 103428 = test: MIC, microdilution method (9.1); type: cell-based, Staphylococcus aureus; conditions: Staphylococcus aureus, CIP103428, read after 18 h, read-out: MIC
Procedure: as §1

[3] = system: S. aureus CIP 65.25 (MRSA); test: MIC, microdilution method (9.1); type: cell-based, Staphylococcus aureus; conditions: Staphylococcus aureus, read after 18 h, read-out: MIC
Procedure: as §1

S. aureus CIP 65.6 = test: MIC, microdilution method (9.1); type: cell-based, Staphylococcus aureus; conditions: Staphylococcus aureus, CIP65, read after 18 h, read-out: MIC
Procedure: as §1

[4] = system: S. epidermidis ATCC 12228; test: MIC, microdilution method (9.1); type: cell-based, Staphylococcus epidermidis; conditions: Staphylococcus epidermidis, ATCC12228, read after 18 h, read-out: MIC
Procedure: as §1

[5] = system: S. epidermidis CIP 103627; test: MIC, microdilution method (9.1); type: cell-based, Staphylococcus epidermidis; conditions: Staphylococcus epidermidis, CIP103627, read after 18 h, read-out: MIC
Procedure: as §1

S. epidermidis CIP 81.55 = test: MIC, microdilution method (9.1); type: cell-based, Staphylococcus epidermidis; conditions: Staphylococcus epidermidis, CIP81, read after 18 h, read-out: MIC
Procedure: as §1

S. pneumoniae ATCC 6303 = test: MIC, microdilution method (9.1); type: cell-based, Streptococcus pneumoniae; conditions: Streptococcus pneumoniae, ATCC6303, 10% sheep blood, 5% CO2, 18 h, read-out: MIC
Procedure: as §1

[6] = system: S. agalactiae (group B) ATCC 12400; test: MIC, microdilution method (9.1); type: cell-based, Streptococcus agalactiae; conditions: Streptococcus agalactiae, ATCC12400, 18 h, read-out: MIC
Procedure: as §1

[7] = system: S. pyogenes (group A) CIP 104226; test: MIC, microdilution method (9.1); type: cell-based, Streptococcus pyogenes; conditions: Streptococcus pyogenes, CIP104226, 18 h, read-out: MIC
Procedure: as §1

S. mitis CIP 103335 = test: MIC, microdilution method (9.1); type: cell-based, Streptococcus mitis; conditions: Streptococcus mitis, CIP103335, 18 h, read-out: MIC
Procedure: as §1

E. faecium CIP 54.32 = test: MIC, microdilution method (9.1); type: cell-based, Enterococcus faecium; conditions: Enterococcus faecium, CIP54, 18 h, read-out: MIC
Procedure: as §1

E. faecalis ATCC 29212 = test: MIC, microdilution method (9.1); type: cell-based, Enterococcus faecalis; conditions: Enterococcus faecalis, ATCC29212, 18 h, read-out: MIC
Procedure: as §1

[8] = system: Acinetobacter baumanii ATCC 19606; test: MIC, microdilution method (9.1); type: cell-based; conditions: Acinetobacter baumannii, ATCC19606, 18 h, read-out: MIC
Procedure: as §1

[9] = system: Bacillus subtilis CIP 5262; test: MIC, microdilution method (9.1); type: cell-based; conditions: CIP5262, 18 h, read-out: MIC
Procedure: as §1

[10] = system: Enterobacter cloacae ATCC13047; test: MIC, microdilution method (9.1); type: cell-based; conditions: 18 h
Procedure: as §1

[11] = system: Escherichia coli ATCC 25922; test: MIC, microdilution method (9.1); type: cell-based; conditions: ATCC25922, 18 h
Procedure: as §1

[12] = system: Haemophilus influenzae ATCC 49766; test: MIC, microdilution method (9.1); type: cell-based; conditions: ATCC49766; Haemophilus influenzae ATCC 49766; 10% sheep blood, 5% CO2; 18 h; read-out: MIC
Procedure: as §1

[13] = system: Klebsiella pneumoniae API ATCC 35657; test: MIC, microdilution method (9.1); type: cell-based; conditions: ATCC35657, 18 h, read-out: MIC
Procedure: as §1

[14] = system: Listeria innocua CIP 80.11; test: MIC, microdilution method (9.1); type: cell-based; conditions: CIP80, 18 h, read-out: MIC
Procedure: as §1

[15] = system: Pseudomonas aeruginosa CIP 5933; test: MIC, microdilution method (9.1); type: cell-based; conditions: CIP5933, 18 h, read-out: MIC
Procedure: as §1

S. pneumoniae ATCC 49619 = test: MIC, microdilution method (9.1); type: cell-based; conditions: Streptococcus pneumoniae, ATCC49619, 10% sheep blood, 5% CO2, 18 h
Procedure: as §1

[16] = system: Serratia marcescens CIP 103551; test: MIC, microdilution method (9.1); type: cell-based; conditions: CIP103551, 18 h
Procedure: as §1

S. aureus SA-1199B = test: MIC, microdilution method (9.1); type: cell-based, Staphylococcus aureus; conditions: Staphylococcus aureus, SA1199B, 18 h
Procedure: as §1

[17] = system: HCT116 (human colon tumor); test: In vitro cytotoxicity; type: cell-based; conditions: read-out: % of cellular growth inhibition; for inhibition at 10 µM: HCT-116, 10^−5 M; for inhibition at 1 µM: HCT-116, 10^−6 M
Procedure: (§2) In vitro cytotoxicity was assayed on three cell lines—KB (human mouth carcinoma), MCR5 (human lung fibroblast) and HCT116 (human colon tumor). Results are presented in table IV as % of cellular growth inhibition in presence of 10^−5 M and 10^−6 M of the tested bis-indolic derivatives.

[18] = system: KB (human mouth carcinoma); test: In vitro cytotoxicity; type: cell-based; conditions: read-out: % of cellular growth inhibition; for inhibition at 10 µM: 10^−5 M; for inhibition at 1 µM: 10^−6 M
Procedure: as §2

[19] = system: MRC5 (human lung fibroblast); test: In vitro cytotoxicity; type: cell-based; conditions: read-out: % of cellular growth inhibition; for inhibition at 10 µM: 10^−5 M; for inhibition at 1 µM: 10^−6 M
Procedure: as §2

SMILES	MIC [1] [µg/mL]	MIC (S. aureus ATCC 25923) [µg/mL]	MIC (S. aureus ATCC 29213) [µg/mL]	MIC [2] [µg/mL]	MIC (S. aureus ATCC 6538) [µg/mL]	MIC (S. aureus ATCC 9144) [µg/mL]	MIC (S. aureus CIP 103428) [µg/mL]	MIC [3] [µg/mL]	MIC (S. aureus CIP 65.6) [µg/mL]	MIC [4] [µg/mL]	MIC [5] [µg/mL]	MIC (S. epidermidis CIP 81.55) [µg/mL]	MIC (S. pneumoniae ATCC 6303) [µg/mL]	MIC [6] [µg/mL]	MIC [7] [µg/mL]	MIC (S. mitis CIP 103335) [µg/mL]	MIC (E. faecium CIP 54.32) [µg/mL]	MIC (E. faecalis ATCC 29212) [µg/mL]	MIC [8] [µg/mL]	MIC [9] [µg/mL]	further results
O=C(NC(C(=O)NCCCCO)c1c[nH]c2ccc(Br)cc12)c1c[nH]c2ccc(Br)cc12 (centres unmarked) [Compound 15, 5-Bromo-N-(1-(5-bromo-1H-indol-3-yl)-2-((4-hydroxybutyl)amino)-2-oxoethyl)-1H-indole-3-carboxamide]	32 (≈ 56.9 µM)	32 (≈ 56.9 µM)	16 (≈ 28.5 µM)	32 (≈ 56.9 µM)	16 (≈ 28.5 µM)	32 (≈ 56.9 µM)	16 (≈ 28.5 µM)	32 (≈ 56.9 µM)	32 (≈ 56.9 µM)	32 (≈ 56.9 µM)	32 (≈ 56.9 µM)	> 32	128 (≈ 228 µM)	64 (≈ 114 µM)	128 (≈ 228 µM)	> 128	> 128	> 128	> 32	> 128	MIC [10]: > 32 µg/mL; MIC [11]: > 32 µg/mL; MIC [12]: > 128 µg/mL; MIC [13]: > 32 µg/mL; MIC [14]: > 128 µg/mL; MIC [15]: > 32 µg/mL; MIC (S. pneumoniae ATCC 49619): 128 µg/mL (≈ 228 µM); MIC [16]: > 32 µg/mL
CC(C)(C)OC(=O)NCC(NC(=O)c1c[nH]c2ccccc12)c1c[nH]c2cc(Br)ccc12 (centres unmarked) [Compound 3d, tert-Butyl (2-(6-bromo-1H-indol-3-yl)-2-(1H-indolyl-3-carboxamido)ethyl)carbamate]	8 (≈ 16.1 µM)	8 (≈ 16.1 µM)	8 (≈ 16.1 µM)	8 (≈ 16.1 µM)	8 (≈ 16.1 µM)	8 (≈ 16.1 µM)	8 (≈ 16.1 µM)	8 (≈ 16.1 µM)	8 (≈ 16.1 µM)	16 (≈ 32.2 µM)	16 (≈ 32.2 µM)	16 (≈ 32.2 µM)	64 (≈ 129 µM)	64 (≈ 129 µM)	64 (≈ 129 µM)	64 (≈ 129 µM)	64 (≈ 129 µM)	> 128	> 128	64 (≈ 129 µM)	MIC (S. aureus SA-1199B): 8 µg/mL (≈ 16.1 µM); MIC [10]: > 128 µg/mL; MIC [11]: > 128 µg/mL; MIC [12]: 64 µg/mL (≈ 129 µM); MIC [13]: > 128 µg/mL; MIC [14]: 32 µg/mL (≈ 64.3 µM); MIC [15]: > 128 µg/mL; MIC (S. pneumoniae ATCC 49619): 64 µg/mL (≈ 129 µM); MIC [16]: > 128 µg/mL; inhibition at 10 µM [17]: 73 ± 3%; inhibition at 1 µM [17]: 9%; inhibition at 10 µM [18]: 67 ± 3%; inhibition at 1 µM [18]: 0%; inhibition at 10 µM [19]: 73 ± 6%; inhibition at 1 µM [19]: 0%
CC(C)(C)OC(=O)NCC(NC(=O)c1c[nH]c2cc(Cl)ccc12)c1c[nH]c2ccc(Cl)cc12 (centres unmarked) [Compound 6b, tert-Butyl 2-(5-chloro-1H-indol-3-yl)-2-(6-chloro-1H-indole-3-carboxamido)ethyl carbamate]	4 (≈ 8.21 µM)	4 (≈ 8.21 µM)	4 (≈ 8.21 µM)	4 (≈ 8.21 µM)	4 (≈ 8.21 µM)	4 (≈ 8.21 µM)	4 (≈ 8.21 µM)	4 (≈ 8.21 µM)	4 (≈ 8.21 µM)	4 (≈ 8.21 µM)	8 (≈ 16.4 µM)	4 (≈ 8.21 µM)	64 (≈ 131 µM)	128 (≈ 263 µM)	128 (≈ 263 µM)	128 (≈ 263 µM)	> 128	> 128	> 128	64 (≈ 131 µM)	MIC (S. aureus SA-1199B): 4 µg/mL (≈ 8.21 µM); MIC [10]: > 128 µg/mL; MIC [11]: > 128 µg/mL; MIC [12]: > 128 µg/mL; MIC [13]: > 128 µg/mL; MIC [14]: > 128 µg/mL; MIC [15]: > 128 µg/mL; MIC (S. pneumoniae ATCC 49619): 64 µg/mL (≈ 131 µM); MIC [16]: > 128 µg/mL; inhibition at 10 µM [17]: 97 ± 6%; inhibition at 1 µM [17]: 0%; inhibition at 10 µM [18]: 92 ± 4%; inhibition at 1 µM [18]: 2%; inhibition at 10 µM [19]: 99 ± 1%; inhibition at 1 µM [19]: 0%
